Source: paper PMC5579037, “Modification of the response of olfactory receptors to acetophenone by CYP1a2” (Scientific Reports, 2017)

Tests used:
Type in all cases: cell-based
[1] = target: T1, MOR123-2 (Mus musculus, UniProt E9Q8M2); test: CRE-luciferase reporter assay in Hana3A cells; conditions: no CYP co-expressed; RTP1S and M3-R; 3 h, 37 °C; agonist
T1 construct: gene Or10aa3; ORF from mouse genomic DNA, N-terminal Rho-tag, pCI; Hana3A cells with RTP1S and M3-R
T1 sequence (E9Q8M2 1-312): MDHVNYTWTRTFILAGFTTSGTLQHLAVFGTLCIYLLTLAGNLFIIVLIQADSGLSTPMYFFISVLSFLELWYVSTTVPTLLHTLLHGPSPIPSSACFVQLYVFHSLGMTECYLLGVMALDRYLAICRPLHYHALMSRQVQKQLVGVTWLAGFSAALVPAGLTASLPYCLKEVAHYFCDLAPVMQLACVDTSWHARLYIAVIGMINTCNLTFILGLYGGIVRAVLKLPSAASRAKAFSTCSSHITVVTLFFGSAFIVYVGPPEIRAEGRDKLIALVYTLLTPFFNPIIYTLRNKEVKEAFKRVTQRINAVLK

[2] = target: T2, MOR164-2 (Mus musculus, UniProt Q7TRB9); test: CRE-luciferase reporter assay in Hana3A cells; conditions: no CYP co-expressed; RTP1S and M3-R; 3 h, 37 °C; agonist
T2 construct: gene Or8b56; ORF from mouse genomic DNA, N-terminal Rho-tag, pCI; Hana3A cells with RTP1S and M3-R
T2 sequence (Q7TRB9 1-317): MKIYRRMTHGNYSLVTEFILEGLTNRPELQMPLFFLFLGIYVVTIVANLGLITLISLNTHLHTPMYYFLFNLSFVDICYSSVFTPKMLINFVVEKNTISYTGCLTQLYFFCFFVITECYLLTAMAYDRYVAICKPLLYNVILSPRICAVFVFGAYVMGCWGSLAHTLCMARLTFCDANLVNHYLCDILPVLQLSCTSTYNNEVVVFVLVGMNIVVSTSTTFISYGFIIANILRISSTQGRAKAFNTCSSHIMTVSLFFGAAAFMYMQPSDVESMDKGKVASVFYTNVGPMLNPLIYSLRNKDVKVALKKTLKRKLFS

[3] = target: T3, MOR161-2 (Mus musculus, UniProt Q7TRE6); test: CRE-luciferase reporter assay in Hana3A cells; conditions: no CYP co-expressed; RTP1S and M3-R; 3 h, 37 °C; agonist
T3 construct: gene Or8b12; Hana3A cells with RTP1S and M3-R
T3 sequence (Q7TRE6 1-310): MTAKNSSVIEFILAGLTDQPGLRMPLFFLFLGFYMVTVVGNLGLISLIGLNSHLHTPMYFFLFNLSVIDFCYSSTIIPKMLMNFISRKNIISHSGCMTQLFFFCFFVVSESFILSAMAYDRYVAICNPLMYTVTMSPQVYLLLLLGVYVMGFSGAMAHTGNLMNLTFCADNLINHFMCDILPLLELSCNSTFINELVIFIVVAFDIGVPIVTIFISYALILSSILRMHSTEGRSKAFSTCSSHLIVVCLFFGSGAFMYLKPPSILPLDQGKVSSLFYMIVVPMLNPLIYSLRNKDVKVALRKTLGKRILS

[4] = target: T4, CYP1a2 (Mus musculus, UniProt P00186); test: P450-Glo luminescence assay in transfected Hana3A cells; conditions: CD293 medium, 3 h, 37 °C; against mock transformant
T4 construct: cDNA from mouse olfactory epithelium library, pCI vector, expressed in Hana3A cells
T4 sequence (P00186 2-513): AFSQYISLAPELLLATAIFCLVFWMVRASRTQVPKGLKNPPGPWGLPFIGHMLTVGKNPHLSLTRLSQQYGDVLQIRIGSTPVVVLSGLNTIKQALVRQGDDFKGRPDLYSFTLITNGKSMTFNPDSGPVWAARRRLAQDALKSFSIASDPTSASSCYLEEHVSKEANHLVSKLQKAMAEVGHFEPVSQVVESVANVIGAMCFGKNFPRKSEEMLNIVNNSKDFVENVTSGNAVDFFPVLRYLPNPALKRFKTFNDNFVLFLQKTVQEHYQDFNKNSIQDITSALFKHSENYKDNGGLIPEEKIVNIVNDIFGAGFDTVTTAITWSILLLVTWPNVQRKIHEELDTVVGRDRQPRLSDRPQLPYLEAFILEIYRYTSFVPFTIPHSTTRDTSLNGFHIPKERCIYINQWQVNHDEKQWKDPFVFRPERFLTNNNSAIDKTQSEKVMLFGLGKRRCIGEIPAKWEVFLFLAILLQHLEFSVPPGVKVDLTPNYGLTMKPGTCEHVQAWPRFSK

Row | Structure (SMILES) | CRE-luciferase reporter assay in Hana3A cells [1] | CRE-luciferase reporter assay in Hana3A cells [2] | CRE-luciferase reporter assay in Hana3A cells [3] | P450-Glo luminescence assay in transfected Hana3A cells [4]
1 | CC(=O)c1ccccc1 [acetophenone] | We observed effects of CYPs on the responses of MOR123-2, MOR161-2 and MOR164-2. | We observed effects of CYPs on the responses of MOR123-2, MOR161-2 and MOR164-2. | We compared the response of MOR161-2 against acetophenone and methyl salicylate. | 
2 | COc1ccc2nc(C3=NC(C(=O)O)CS3)sc2c1 (stereo not shown) [luciferin-ME] |  |  |  | Functional expression of CYP1a2 in Hana3A cells was confirmed by the P450-Glo assay using luciferin-ME
3 | COC(=O)c1ccccc1 [methyl benzoate] |  |  | Potential intermediates are methyl benzoate and salicylate, and indeed MOR161-2 responded to both of them. | 
4 | COC(=O)c1ccccc1O [methyl salicylate] |  |  | MOR161-2 showed a larger response to methyl salicylate than acetophenone. | 
5 | O=C(O)c1ccccc1O [salicylic acid] |  |  | Potential intermediates are methyl benzoate and salicylate, and indeed MOR161-2 responded to both of them. | 
